Tests used:
[1] = HPLC-based measurement of the logarithm of the octanol-water partition coefficient (HPLClogD7.4); type: physicochemical; conditions: pH 7.4, HPLC-based assay; mean ± SEM of three independent experiments
Description: The logarithm of the octanol-water partition coefficient of the A3R antagonists were determined at pH 7.4 by high-performance liquid chromatography (HPLC)-based assay (HPLClogD^7.4) modified from Donovan and Pescatore. Briefly, a mixture of two internal standards (toluene and triphenylene) with known logD values and defined retention times (k’) have been used. A3R antagonists were dissolved in methanol and injected onto a short polymeric ODP-50 column (20 × 4.0 mm, 5 μm pore size, Supelco, Bellefonte, PA, USA). A linear gradient from 10% methanol/90% phosphate buffer (25 mM, pH 7.4) to 100% methanol within 9.4 min at a flow rate of 1.5 mL/min were applied. Measurement and detection of the three retention times of toluene, triphenylene and A3R antagonists were performed at 260 and 285 nm. Between consecutive HPLC runs, 5 min for re-equilibration of the HPLC column were allowed. The logD values of the dedicated compounds were determined using the known logD values of triphenylene and toluene and the retention time of triphenylene, toluene and the unknown compounds according to the following formula:1 logPUnknown=logPtol−logPtriph*tUnknown+ttol*logPtriph−ttriph*logPtol/ttol−ttriph where “log P Unknown” is the logD value of the test compound and “t Unknown” the corresponding measured retention time of the dedicated substance. The logD values for the internal standards are abbreviated as “log P tol” (toluene) and “log P triph” (triphenylene), respectively. Measured retention times are indicated as “t tol” for toluene and “t triph” for triphenylene.

[2] = target: T1, human adenosine A3 receptor (CHO-K1-hA3R cells) (Homo sapiens, UniProt P0DMS8); test: Competitive real-time cell-binding studies (LigandTracer), displacement of [125I]-AB-MECA; conditions: 0.7 nM [125I]-AB-MECA, ambient temperature, Cheng-Prusoff, mean ± SEM, three independent experiments
T1 construct: expressed in transfected cells
T1 sequence (P0DMS8 1-318): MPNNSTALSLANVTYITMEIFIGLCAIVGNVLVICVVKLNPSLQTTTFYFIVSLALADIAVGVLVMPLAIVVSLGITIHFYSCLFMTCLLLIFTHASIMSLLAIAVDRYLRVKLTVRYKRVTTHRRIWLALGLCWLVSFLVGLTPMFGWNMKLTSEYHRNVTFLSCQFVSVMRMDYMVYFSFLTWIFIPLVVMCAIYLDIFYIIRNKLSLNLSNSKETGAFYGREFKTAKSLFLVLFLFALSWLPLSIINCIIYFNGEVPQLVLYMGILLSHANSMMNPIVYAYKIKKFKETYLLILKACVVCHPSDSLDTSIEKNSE
Description: The measurements were made according to the assay protocol as previously described above. […] The experiments were initiated with a baseline measurement (10–15 min). […] Inhibition of the radioligand was performed by adding different concentration series (1–500 nM) of unlabelled compounds (A3R antagonists) each after visual binding equilibrium. At least four different concentrations of competitor, spanning three orders of magnitude adjusted appropriately for the IC50 of each compound, were used. Unspecific binding was determined in the presence of a high concentration (0.5–100 μM) of the non-labelled competitor substance. The observed association phase of the radioligand and the dissociation phase of each consecutive concentration of the competitor substance were monitored in real-time until visual binding equilibrium was reached. All non-labelled compounds were initially dissolved in DMSO and diluted with deionized water to the final concentration, where the amount of DMSO never exceeded 5%. Cytophysiological conditions and cell attachment were examined continuously during the whole course of the experiment with the perimeter trace of the LigandTracer® software (version 1.0.1).
Raw data from the LigandTracer® measurements were analysed in GraphPad Prism 6.0 (GraphPad Software, Inc., San Diego, CA). Experiments were conducted at least as a triplicate with different batches of radioligand and biological target material to avoid systematic bias and to assure statistical certainty. […] Transformed data was analysed using “one-phase association” curve fitting algorithm as outlined in the following equation:2 Y=Y0+Plateau−Y0*1−e^−k*x where “x” is a given time and “Y” corresponds to the amount of radioligand binding for a dedicated time point. “Y 0” is the initial value of “Y” at the beginning of radioligand incubation and “plateau” indicates the maximum amount of the bound radioligand after equilibrium. “k” is the rate constant expressed in reciprocal units of “x”.
Transformed data were analysed by using “dissociation—one-phase exponential decay” curve fit as follows:3 Y=Y0−NS*e^−k*x+NS where “x” is a given time and “Y” corresponds to the amount of bound radioligand for a dedicated time point. “Y 0” is the initial value of “Y” at the beginning of each dissociation phase and “NS” indicates the steady state of radioligand binding in the presence of dedicated cold competitor after infinite time. “k” is the rate constant expressed in reciprocal units of “x”.
Equilibrium binding data determined in Eqs. (2) and (3) served as input parameters for the calculation of the IC50 using “log(inhibitor) vs. response—variable slope (four parameters)” nonlinear regression algorithm as described below:4 Y=Bottom+Top−Bottom/1+10^logIC50−C*HillSlope where “C” is the logarithm of the competitor concentration and “Y” reflects the dedicated amount of bound radioligand at equilibrium obtained from Eq. (3). “Top” indicates the maximum amount of radioligand binding (without any competitor) whereas the corresponding value is derived from Eq. (2). “Bottom” expresses the amount of unspecific radioligand binding in presence of a very high concentration of competitor. The dedicated value is determined by Eq. (3) and corresponds to the “NS” value of the last inhibitor concentration. The “HillSlope” reflects the slope factor, which indicates the steepness of the resulting inhibition curve. […] The resulting IC50 was converted into the K i using Cheng-Prusoff Eq. (3).

[3] = target: human A3R; design: method as in PMID 11462807, PMID 8190112, PMID 8576921; conditions: traditional binding assays, membranes from human A3R-transfected HEK-293 cells; ref [30], [32], [33]; read-out: Ki Literature; cited from earlier work
[4] = target: human A3R; conditions: traditional saturation binding assays, membranes from human A3R-transfected HEK-293 cells; ref [29]; read-out: K d (Reported affinity); cited from earlier work

CCc1nc(-c2ccccc2)c(C(=O)OCCF)c(CC)c1C(=O)SCCF [(FE)^2@SUPPY, 2-fluoroethyl 4,6-diethyl-5-{[(2-fluoroethyl)sulfanyl]carbonyl}-2-phenylpyridine-3-carboxylate]
chromatographic logD [1]: 3.95 ± 0.38
Ki [2]: 0.00805 ± 0.00177 µM

CCc1nc(-c2ccccc2)c(C(=O)OC)c(CC)c1C(=O)SC [(Me)^2@SUPPY, methyl 4,6-diethyl-5-[(methylsulfanyl)carbonyl]-2-phenylpyridine-3-carboxylate]
chromatographic logD [1]: 3.66 ± 0.33
Ki [2]: 0.0461 ± 0.00666 µM

CCSC(=O)c1c(CC)nc(-c2ccccc2)c(C(=O)O)c1CC [DFE@SUPPY, 4,6-diethyl-5-[(ethylsulfanyl)carbonyl]-2-phenylpyridine-3-carboxylic acid]
chromatographic logD [1]: 0.97 ± 0.37
Ki [2]: 0.114 ± 0.0169 µM

CCSC(=O)c1c(CC)nc(-c2ccccc2)c(C(=O)OCCF)c1CC [FE@SUPPY, 5-(2-fluoroethyl)2,4-diethyl-3-(ethylsulfanylcarbonyl)-6-phenylpyridine-5-carboxylate]
chromatographic logD [1]: 4.04 ± 0.36
Ki [2]: 0.00851 ± 0.00146 µM

CCOC(=O)c1c(-c2ccccc2)nc(CC)c(C(=O)SCCF)c1CC [FE@SUPPY:2, 5-ethyl 2,4-diethyl-3-((2-fluoroethyl)sulfanylcarbonyl)-6-phenylpyridine-5-carboxylate]
chromatographic logD [1]: 4.05 ± 0.36
Ki [2]: 0.00824 ± 0.00235 µM

CCc1nc(-c2ccccc2)c(C(=O)OC)c(CC)c1C(=O)SCCF [FEMe@SUPPY:2, methyl 4,6-diethyl-5-{[(2-fluoroethyl)sulfanyl]carbonyl}-2-phenylpyridine-3-carboxylate]
chromatographic logD [1]: 3.83 ± 0.36
Ki [2]: 0.0412 ± 0.00391 µM

CCOC(=O)C1=C(C)NC(c2ccccc2)=C(C(=O)OCc2ccccc2)C1C#Cc1ccccc1 (centres unmarked) [MRS1191, 1,4-dihydro-2-methyl-6-phenyl-4-(phenylethynyl)-3,5-pyridinedicarboxylic acid, 3-ethyl 5-(phenylmethyl) ester, reference compound]
chromatographic logD [1]: 4.83 ± 0.01

CCCOC(=O)c1c(-c2ccccc2)nc(CC)c(C(=O)SCC)c1CCC [MRS1523, 2,3-ethyl-4,5-dipropyl-6-phenylpyridine-3-thiocarboxylate-5-carboxylate, reference compound]
chromatographic logD [1]: 4.85 ± 0.01
Ki [2]: 0.0178 ± 0.00288 µM
Ki [3]: 0.0189 ± 0.0041 µM

CNC(=O)[C@H]1O[C@@H](n2cnc3c(NCc4ccc(N)c(I)c4)ncnc32)[C@H](O)[C@@H]1O [[^125I]-AB-MECA, [^125I]-4-aminobenzyl-5′-N-methylcarboxamideoadenosine]
Kd [4]: 0.00059 ± 2e-05 µM

Source: article PMC5340791, “New approaches for the reliable in vitro assessment of binding affinity based on high-resolution real-time data acquisition of radioligand-receptor binding kinetics” (EJNMMI Research, 2017)
